Counter-ions that a name gives are not always drawn. Like-named read-outs stand apart in the source and are kept apart here.
Columns and labels:
Type in all cases: biochemical
[1] = target: T1, MAO-A (Rattus norvegicus, UniProt P21396); assay: Inhibition of MAO activity in vitro (5-HT substrate)
T1 construct: from tissue; host or cells: brain, liver and intestine (duodenum) of dosed rats
T1 sequence (P21396 1-526): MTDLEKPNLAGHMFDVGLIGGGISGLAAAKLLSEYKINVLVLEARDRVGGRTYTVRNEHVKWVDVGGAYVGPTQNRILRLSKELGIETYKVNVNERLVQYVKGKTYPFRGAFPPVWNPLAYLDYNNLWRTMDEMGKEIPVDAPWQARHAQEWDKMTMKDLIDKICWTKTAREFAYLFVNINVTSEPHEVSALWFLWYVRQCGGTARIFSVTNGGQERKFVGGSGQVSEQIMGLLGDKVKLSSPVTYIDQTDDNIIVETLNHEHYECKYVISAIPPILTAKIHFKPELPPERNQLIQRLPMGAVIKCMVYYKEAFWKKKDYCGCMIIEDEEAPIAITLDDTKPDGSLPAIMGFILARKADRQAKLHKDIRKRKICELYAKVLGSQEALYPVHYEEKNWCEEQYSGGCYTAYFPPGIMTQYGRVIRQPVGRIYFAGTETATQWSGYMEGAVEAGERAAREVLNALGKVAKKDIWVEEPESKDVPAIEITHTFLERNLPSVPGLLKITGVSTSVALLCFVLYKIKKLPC
Method: The MAO enzyme source was a homogenate of rat brain in 0.3M sucrose. The homogenate was diluted appropriately, and pre-incubated with serial dilutions of test compounds—diluted in phosphate buffer containing clogyline when 2-phenylethylamine (PEA) is the substrate, and diluted in phosphate buffer containing selegiline when 5-hydroxytryptamine (5-HT) is the substrate—for 60 minutes at 37° C. 14C-Labeled substrates (PEA for MAO-B determination and 5-HT for MAO-A determination) were then added, and the incubation continued for a further 20 minutes (PEA) or 30 minutes (5-HT). Substrate concentrations used were 10 μM (PEA) and 100 uM (5-HT). Enzyme concentration was chosen so that not more than 10% of the substrate was metabolized during the course of the reaction. Deaminated products were extracted into toluene-ethyl acetate (1:1 v/v) containing 0.4% (w/v) 2,5-diphenyloxazole (ppo) prior to determination by liquid scintillation counting. Radioactivity in the eluate indicated the production of neutral and acidic metabolites formed as a result of MAO activity. Activity of MAO in the sample was expressed as a percentage of control activity in the absence of inhibitor after subtraction of appropriate blank values. The activity determined using PEA as substrate is referred to as MAO-B, and that determined using 5-HT as MAO-A.
Concentrations of each inhibitor producing 50% inhibition of substrate metabolism (IC50) were calculated from the inhibition curves, and are shown in Table 1.

[2] = target: T2, Recombinant human AChE (Homo sapiens, UniProt P22303); assay: Inhibition of acetylcholinesterase activity in vitro (Ellman, stopped time assay); set-up: ki (bimolecular rate constant): unit not given here
T2 construct: purchased Sigma-Aldrich Israel C-1682
Method: Recombinant human AChE (C-1682), acetylthiocholine iodide (AcTh, A5771), bovine serum albumin (BSA, A-2153), and 5,5′-dithiobis(2-nitrobenzoic acid) (DTNB, D8130) were obtained from Sigma-Aldrich Israel. […] AChE was dissolved in phosphate buffer pH 8.0 containing 0.01% sodium azide NaAz and 1 mM EDTA and diluted to give a concentration of 15 units/ml. This solution was divided into aliquots of 0.5 ml, which were stored at −70° C. until use.
The inhibitory activity against AChE was determined by the method of Ellmann et al. (Biochemical Pharmacology, 1961 (7) 88-95) using AcTh as a substrate. To characterize the carbamoylation step, a traditional stopped time assay was performed, in which AChE was incubated at 37° C. with a minimum of 5 different concentrations of inhibitor in the assay buffer, and aliquots were transferred to an ELISA multiscan microplate reader (Labsystems) at various times for the determination of residual AChE activity, with Ascent PC software. The rate of reaction was measured at 412λ at 37° C. in 0.2 ml wells containing AChE 0.023 units per ml, DTNB 0.4-0.5 mM, AcTh 0.50 or 1 mM and BSA (0.05%) in 50 mM phosphate buffer as described above. Measurements were made every 5 min for up to 5 hours.
(§1) The inhibition of AChE by carbamates involves the formation of a reversible complex (EOH•CX), followed by carbamoylation of the enzyme to form (EOC) and a leaving group (HX). The carbamoylated enzyme is then hydrolyzed by water to regenerate the free enzyme (EOH).
The formation of the reversible complex is represented by the equilibrium constant: KD. For the carbamoylation phase of the inhibition process the unimolecular rate constant is represented by kmax, and the bimolecular rate constant by ki.

[3] = target: T3, BuChE from human serum (Homo sapiens, UniProt P06276); assay: Inhibition of butyrylcholinesterase activity in vitro (Ellman, stopped time assay); set-up: ki (bimolecular rate constant): unit not given here
T3 construct: BuChE from human serum (C-9971); purchased Sigma-Aldrich Israel C-9971; host or cells: purified from human serum
Method: BuChE from human serum (C-9971), butyrylthiocholine iodide (BuTh, B3253), bovine serum albumin (BSA, A-2153) 5,5′-dithiobis(2-nitrobenzoic acid) (DTNB, D8130) were obtained from Sigma-Aldrich Israel. BuChE was dissolved in phosphate buffer pH 8.0 containing 0.01% sodium azide (NaAz) and 1 mM EDTA and diluted to give a concentration of 35.9 units/ml. This solution was divided into aliquots of 0.5 ml, which were stored at −70° C. until use.
The inhibitory activity against BuChE was determined by the method of Ellmann et al. (Biochemical Pharmacology, 1961 (7) 88-95) using BuTh as a substrate. To characterize the carbamoylation step, a traditional stopped time assay was performed, in which BuChE was incubated at 37° C. with a minimum of 5 different concentrations of inhibitor in the assay buffer, and aliquots were transferred to an ELISA multiscan microplate reader (Labsystems) at various times for the determination of residual BuChE activity, with Ascent PC® software. The rate of reaction was measured at 412λ at 37° C. in 0.2 ml wells containing […] 0.023 units per ml, DTNB 0.4-0.5 mM, AcTh 0.50 or 1 mM and BSA (0.05%) in 50 mM phosphate buffer as described above. For all compounds measurements were made every 2 min for 15 min and then every 15 min for 3 hr.
as §1, with “BuChE” for “AChE”, “(EOH). The formation of the reversible complex is represented by the equilibrium constant: KD. For the carbamoylation phase of the inhibition process the unimolecular rate constant is represented by kmax, and the bimolecular rate constant by ki.” for “(EOH).”

T2 sequence (P22303 32-614): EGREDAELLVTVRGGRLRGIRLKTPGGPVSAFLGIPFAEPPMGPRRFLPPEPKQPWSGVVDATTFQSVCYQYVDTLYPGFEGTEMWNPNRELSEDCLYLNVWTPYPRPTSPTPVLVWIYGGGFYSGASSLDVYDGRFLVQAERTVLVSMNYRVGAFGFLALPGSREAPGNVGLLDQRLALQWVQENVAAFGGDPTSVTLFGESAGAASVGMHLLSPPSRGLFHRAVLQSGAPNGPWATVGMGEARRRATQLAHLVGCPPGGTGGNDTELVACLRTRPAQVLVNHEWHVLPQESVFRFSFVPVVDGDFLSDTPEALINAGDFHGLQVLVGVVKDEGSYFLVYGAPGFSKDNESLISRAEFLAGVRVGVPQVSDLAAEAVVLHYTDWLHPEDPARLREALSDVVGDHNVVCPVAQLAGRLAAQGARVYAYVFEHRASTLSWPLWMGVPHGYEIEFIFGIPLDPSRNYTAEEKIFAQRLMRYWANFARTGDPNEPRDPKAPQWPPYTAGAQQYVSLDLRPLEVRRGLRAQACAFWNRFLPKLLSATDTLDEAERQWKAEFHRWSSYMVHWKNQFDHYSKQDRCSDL
T3 sequence (P06276 29-602): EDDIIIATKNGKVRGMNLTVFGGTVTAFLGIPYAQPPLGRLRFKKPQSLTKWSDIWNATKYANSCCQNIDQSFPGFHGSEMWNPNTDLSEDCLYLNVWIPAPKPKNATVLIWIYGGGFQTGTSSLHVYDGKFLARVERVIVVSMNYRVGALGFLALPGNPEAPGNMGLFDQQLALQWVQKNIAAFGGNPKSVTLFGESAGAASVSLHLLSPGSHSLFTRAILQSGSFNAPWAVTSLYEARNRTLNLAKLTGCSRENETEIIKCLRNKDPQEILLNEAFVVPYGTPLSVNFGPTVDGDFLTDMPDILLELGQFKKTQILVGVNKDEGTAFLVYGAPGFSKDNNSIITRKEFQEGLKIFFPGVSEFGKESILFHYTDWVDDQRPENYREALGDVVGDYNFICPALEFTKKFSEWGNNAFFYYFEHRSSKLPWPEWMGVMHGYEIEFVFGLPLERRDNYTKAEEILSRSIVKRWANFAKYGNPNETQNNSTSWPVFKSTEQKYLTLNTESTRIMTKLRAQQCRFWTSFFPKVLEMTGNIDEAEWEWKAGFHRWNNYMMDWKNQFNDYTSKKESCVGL

Structure (SMILES) | IC50 [1] | inhibition of acetylcholinesterase, in words [2] | kmax (unimolecular carbamoylation rate constant) ([2]; AChE, 37° C.) | Kd [3] | inhibition of butyrylcholinesterase, in words [3] | ki (bimolecular rate constant) ([3]; BuChE, 37° C.) | kmax (unimolecular carbamoylation rate constant) ([3]; BuChE, 37° C.) | IC50 ([1]; rat brain homogenate, 5-HT 100 uM, 60 minutes pre-incubation at 37° C., read-out: IC50 for MAO-A inhibition) | ki (bimolecular rate constant) ([2]; AChE, 37° C.) | Kd ([2]; AChE, 37° C., read-out: KD (equilibrium constant of reversible complex)) | Kd ([3]; BuChE, 37° C., read-out: KD (equilibrium constant of reversible complex))
CNC(=O)Oc1ccc2c(c1)[C@H](N)CC2 [R-MCAI, Methyl-carbamic acid 3-R-amino-indan-5-yl ester hydrochloride] | 32.2 µM | potent inhibitors | 1.63 min⁻¹ | 36 ± 5 µM | potent inhibitors | 14.5 ± 0.42 | 0.516 ± 0.050 min⁻¹ | – | – | – | –
C#CCN[C@@H]1CCc2ccc(OC(=O)N(CC)CO)cc21 [R-HCPAI, Ethyl-hydroxymethyl-carbamic acid 3-R-(prop-2-ynylamino)-indan-5-yl ester fumarate (2:1)] | – | weak inhibitor | 0.033 min⁻¹ | – | weak inhibitor | 0.936 ± 0.06 | 0.104 ± 0.043 min⁻¹ | 414 µM | 0.106 ± 0.008 | 306 µM | 111 ± 50 µM
C#CCN[C@@H]1CCc2ccc(OC(=O)NC)cc21 [R-MCPAI, Methyl-carbamic acid 3-R-(prop-2-ynylamino)-indan-5-yl ester hydrochloride] | 37 µM | potent inhibitors | 0.435 min⁻¹ | 21 ± 2 µM | potent inhibitors | 31.3 ± 2.0 | 0.65 ± 0.03 min⁻¹ | – | – | – | –

From patent publication US8609719B2, “Propargylated aminoindans, processes for preparation, and uses thereof” (priority 2006, dated 2013)
